Test results from patent publication US11180462B2, “Microbiocidal oxadiazole derivatives” (SYNGENTA PARTICIPATIONS AG, priority 2015, dated 2021).

Columns and labels:
Phakopsora Pachyrhizi = experiment: Fungicidal activity against Phakopsora pachyrhizi / soybean / leaf disc preventative (Asian soybean rust); format: in vivo; settings: foliar, 200 ppm in the applied formulation, soybean leaf disks, compared to untreated control leaf disks, read-out: disease control
Procedure, shortened: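 Preventative soybean leaf-disc test: discs on water agar sprayed with diluted formulated compound, inoculated one day later with spores on the lower surface. Held 24–36 h dark at 20°C, 75% rh, then 12 h light/day; percent disease control versus untreated discs scored 12–14 days after application.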

[1] = test system: Puccinia recondita f. Sp. Tritici; experiment: Fungicidal activity against Puccinia recondita f. sp. tritici / wheat / leaf disc preventative (brown rust); format: in vivo; settings: foliar, 200 ppm in the applied formulation, wheat leaf segments, preventative, compared to untreated control leaf disks, read-out: disease control
Procedure, shortened: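 Compound application precedes infection: segments of wheat cv. Kanzler, sprayed at 200 ppm, are inoculated with a spore suspension after 1 day. Incubation is at 19° C. with 75% relative humidity and 12 h light/12 h darkness, and control versus untreated leaves is rated 7 to 9 days post-application.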

[2] = test system: Puccinia recondita f. Sp. Tritici; experiment: Fungicidal activity against Puccinia recondita f. sp. tritici / wheat / leaf disc curative (brown rust); format: in vivo; settings: foliar, 24 h, 200 ppm in the applied formulation, wheat leaf segments, curative (applied 1 day after inoculation), compared to untreated control leaf disks, read-out: disease control
Procedure, shortened: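 Curative leaf-segment test: compound diluted in water applied 1 day after spore inoculation of cv. Kanzler wheat segments on agar. Conditions 19° C, 75% RH, 12 h/12 h light cycle. Read-out: % disease control relative to untreated check, 6 to 8 days after application.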

[3] = test system: Glomerella lagenarium (Colletotrichum lagenarium); experiment: Fungicidal activity against Glomerella lagenarium (Colletotrichum lagenarium) liquid culture / cucumber / preventative (anthracnose); format: cell-based; settings: Colletotrichum orbiculare; 20 ppm in the applied formulation; liquid culture (PDB), growth inhibition measured photometrically after 3 to 4 days; compared to untreated control; read-out: disease control
Procedure, shortened: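 Photometric read-out of fungal growth after 2–7 days, expressed as percent antifungal activity versus untreated check. Cryo-stored conidia in PDB; compound at 20 ppm; dark, 24 °C, 96% RH.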

CCC(C)C(=O)N(CCOC)Cc1ccc(-c2noc(C(F)(F)F)n2)cc1 (stereo not drawn) [Compound 1.350, N-(2-methoxyethyl)-2-methyl-N-[[4-[5-(trifluoromethyl)-1,2,4-oxadiazol-3-yl]phenyl]methyl]-butanamide]
≥ 80%: pest or weed control at 200 ppm (Phakopsora Pachyrhizi) | pest or weed control at 200 ppm [1] | pest or weed control at 200 ppm [2] | inhibition of growth at 20 ppm [3]

COCCC(=O)N(Cc1ccc(-c2noc(C(F)(F)F)n2)cc1)C1CC1 [Compound 1.106, N-cyclopropyl-3-methoxy-N-[[4-[5-(trifluoromethyl)-1,2,4-oxadiazol-3-yl]phenyl]methyl]-propanamide]
≥ 80%: pest or weed control at 200 ppm (Phakopsora Pachyrhizi) | pest or weed control at 200 ppm [1] | pest or weed control at 200 ppm [2] | inhibition of growth at 20 ppm [3]

CNC(=O)N(Cc1ccc(-c2noc(C(F)(F)F)n2)c(F)c1)OC [Compound 3.44, 1-[[3-fluoro-4-[5-(trifluoromethyl)-1,2,4-oxadiazol-3-yl]phenyl]methyl]-1-methoxy-3-methyl-urea]
≥ 80%: pest or weed control at 200 ppm (Phakopsora Pachyrhizi) | pest or weed control at 200 ppm [1] | pest or weed control at 200 ppm [2] | inhibition of growth at 20 ppm [3]

CCON(Cc1ccc(-c2noc(C(F)(F)F)n2)cc1)C(=O)C1CCOC1 (stereo not drawn) [Compound 1.617, N-ethoxy-N-[[4-[5-(trifluoromethyl)-1,2,4-oxadiazol-3-yl]phenyl]methyl]-tetrahydrofuran-3-carboxamide]
≥ 80%: pest or weed control at 200 ppm (Phakopsora Pachyrhizi) | pest or weed control at 200 ppm [1] | pest or weed control at 200 ppm [2] | inhibition of growth at 20 ppm [3]

C=CCN(Cc1ccc(-c2noc(C(F)(F)F)n2)cc1)C(=O)C(C)OC (stereo not drawn) [Compound 1.492, N-allyl-2-methoxy-N-[[4-[5-(trifluoromethyl)-1,2,4-oxadiazol-3-yl]phenyl]methyl]-propanamide]
≥ 80%: pest or weed control at 200 ppm (Phakopsora Pachyrhizi) | pest or weed control at 200 ppm [1] | pest or weed control at 200 ppm [2] | inhibition of growth at 20 ppm [3]

CCC(=O)N(Cc1ccc(-c2noc(C(F)(F)F)n2)c(F)c1)OC [Compound 1.580, N-[[3-fluoro-4-[5-(trifluoromethyl)-1,2,4-oxadiazol-3-yl]phenyl]methyl]-N-methoxy-propanamide]
≥ 80%: pest or weed control at 200 ppm (Phakopsora Pachyrhizi) | pest or weed control at 200 ppm [1] | pest or weed control at 200 ppm [2] | inhibition of growth at 20 ppm [3]

CON(Cc1ccc(-c2noc(C(F)(F)F)n2)cc1)C(C)=O [Compound 1.1, N-methoxy-N-[[4-[5-(trifluoromethyl)-1,2,4-Oxadiazol-3-yl]Phenyl]Methyl]-Acetamide]
≥ 80%: pest or weed control at 200 ppm (Phakopsora Pachyrhizi) | pest or weed control at 200 ppm [1] | pest or weed control at 200 ppm [2] | inhibition of growth at 20 ppm [3]

CCC(C)C(=O)N(C)Cc1ccc(-c2noc(C(F)(F)F)n2)cc1 (stereo not drawn) [Compound 1.525, N.2-dimethyl-N-[[4-[5-(trifluoromethyl)-1,2,4-oxadiazol-3-yl]phenyl]methyl]-butanamide]
≥ 80%: pest or weed control at 200 ppm (Phakopsora Pachyrhizi) | pest or weed control at 200 ppm [1] | pest or weed control at 200 ppm [2] | inhibition of growth at 20 ppm [3]

COCCCC(=O)N(CCO)Cc1ccc(-c2noc(C(F)(F)F)n2)cc1 [Compound 1.724, N-(2-hydroxyethyl)-4-methoxy-N-[[4-[5-(trifluoromethyl)-1,2,4-oxadiazol-3-yl]phenyl]methyl]-butanamide]
≥ 80%: pest or weed control at 200 ppm (Phakopsora Pachyrhizi) | pest or weed control at 200 ppm [1] | pest or weed control at 200 ppm [2] | inhibition of growth at 20 ppm [3]

C#CCN(Cc1ccc(-c2noc(C(F)(F)F)n2)cc1)C(=O)CC [Compound 1.185, N-prop-2-ynyl-N-[[4-[5-(trifluoromethyl)-1,2,4-oxadiazol-3-yl]phenyl]methyl]-propanamide]
≥ 80%: pest or weed control at 200 ppm (Phakopsora Pachyrhizi) | pest or weed control at 200 ppm [1] | pest or weed control at 200 ppm [2] | inhibition of growth at 20 ppm [3]

C#CCN(Cc1ccc(-c2noc(C(F)(F)F)n2)cc1)C(=O)C1(C)COC1 [Compound 1.192, 3-methyl-N-prop-2-ynyl-N-[[4-[5-(trifluoromethyl)-1,2,4-oxadiazol-3-yl]phenyl]methyl]-oxetane-3-carboxamide]
≥ 80%: pest or weed control at 200 ppm (Phakopsora Pachyrhizi) | pest or weed control at 200 ppm [1] | pest or weed control at 200 ppm [2] | inhibition of growth at 20 ppm [3]

C#CCN(Cc1ccc(-c2noc(C(F)(F)F)n2)cc1)C(=O)Cc1cccnc1 [Compound 1.170, N-prop-2-ynyl-2-(3-pyridyl)-N-[[4-[5-(trifluoromethyl)-1,2,4-oxadiazol-3-yl]phenyl]methyl]-acetamide]
≥ 80%: pest or weed control at 200 ppm (Phakopsora Pachyrhizi) | pest or weed control at 200 ppm [1] | pest or weed control at 200 ppm [2] | inhibition of growth at 20 ppm [3]

CON(Cc1ccc(-c2noc(C(F)(F)F)n2)cc1)C(=O)C1(C)CC1 [Compound 1.43, N-methoxy-1-methyl-N-[[4-[5-(trifluoromethyl)-1,2,4-oxadiazol-3-yl]phenyl]methyl]-cyclopropane-carboxamide]
≥ 80%: pest or weed control at 200 ppm (Phakopsora Pachyrhizi) | pest or weed control at 200 ppm [1] | pest or weed control at 200 ppm [2] | inhibition of growth at 20 ppm [3]

CCON(Cc1ccc(-c2noc(C(F)(F)F)n2)cc1)C(=O)C1CC1C (stereo not drawn) [Compound 1.620]
≥ 80%: pest or weed control at 200 ppm (Phakopsora Pachyrhizi) | pest or weed control at 200 ppm [1] | pest or weed control at 200 ppm [2] | inhibition of growth at 20 ppm [3]

CCC(=O)N(CCOC)Cc1ccc(-c2noc(C(F)(F)F)n2)cc1 [Compound 1.345, N-(2-methoxyethyl)-N-[[4-[5-(trifluoromethyl)-1,2,4-oxadiazol-3-yl]phenyl]methyl]-propanamide]
≥ 80%: pest or weed control at 200 ppm (Phakopsora Pachyrhizi) | pest or weed control at 200 ppm [1] | pest or weed control at 200 ppm [2] | inhibition of growth at 20 ppm [3]

CCCC(=O)N(CC)Cc1ccc(-c2noc(C(F)(F)F)n2)cc1 [Compound 1.505, N-ethyl-N-[[4-[5-(trifluoromethyl)-1,2,4-oxadiazol-3-yl]phenyl]methyl]-butanamide]
≥ 80%: pest or weed control at 200 ppm (Phakopsora Pachyrhizi) | pest or weed control at 200 ppm [1] | pest or weed control at 200 ppm [2] | inhibition of growth at 20 ppm [3]

CC(=O)NCC(=O)N(C)Cc1ccc(-c2noc(C(F)(F)F)n2)cc1 [Compound 1.521, 2-acetamido-N-methyl-N-[[4-[5-(trifluoromethyl)-1,2,4-oxadiazol-3-yl]phenyl]methyl]-acetamide]
≥ 80%: pest or weed control at 200 ppm (Phakopsora Pachyrhizi) | pest or weed control at 200 ppm [1] | pest or weed control at 200 ppm [2] | inhibition of growth at 20 ppm [3]

C=CCN(Cc1ccc(-c2noc(C(F)(F)F)n2)cc1)C(=O)CCCOC [Compound 1.487, N-allyl-4-methoxy-N-[[4-[5-(trifluoromethyl)-1,2,4-oxadiazol-3-yl]phenyl]methyl]-butanamide]
≥ 80%: pest or weed control at 200 ppm (Phakopsora Pachyrhizi) | pest or weed control at 200 ppm [1] | pest or weed control at 200 ppm [2] | inhibition of growth at 20 ppm [3]

CON(Cc1ccc(-c2noc(C(F)(F)F)n2)cc1)C(=O)NCC(C)C [Compound 3.13, 3-isobutyl-1-methoxy-1-[[4-[5-(trifluoromethyl)-1,2,4-oxadiazol-3-yl]phenyl]methyl]urea]
≥ 80%: pest or weed control at 200 ppm (Phakopsora Pachyrhizi) | pest or weed control at 200 ppm [1] | pest or weed control at 200 ppm [2] | inhibition of growth at 20 ppm [3]

CON(Cc1ccc(-c2noc(C(F)(F)F)n2)cc1)C(=O)C1(C(F)(F)F)CC1 [Compound 1.6, N-methoxy-1-(trifluoromethyl)-N-[[4-[5-(trifluoromethyl)-1,2,4-oxadiazol-3-yl]phenyl]methyl]-cyclopropane-carboxamide]
≥ 80%: pest or weed control at 200 ppm (Phakopsora Pachyrhizi) | pest or weed control at 200 ppm [1] | pest or weed control at 200 ppm [2] | inhibition of growth at 20 ppm [3]

N#Cc1ccc(CC(=O)N(Cc2ccc(-c3noc(C(F)(F)F)n3)cc2)C2CC2)cc1 [Compound 1.130, 2-(4-cyanophenyl)-N-cyclopropyl-N-[[4-[5-(trifluoromethyl)-1,2,4-oxadiazol-3-yl]phenyl]methyl]-acetamide]
≥ 80%: pest or weed control at 200 ppm (Phakopsora Pachyrhizi) | pest or weed control at 200 ppm [1] | pest or weed control at 200 ppm [2] | inhibition of growth at 20 ppm [3]

C#CCN(Cc1ccc(-c2noc(C(F)(F)F)n2)cc1)C(=O)CCC [Compound 1.165, N-prop-2-ynyl-N-[[4-[5-(trifluoromethyl)-1,2,4-oxadiazol-3-yl]phenyl]methyl]-butanamide]
≥ 80%: pest or weed control at 200 ppm (Phakopsora Pachyrhizi) | pest or weed control at 200 ppm [1] | pest or weed control at 200 ppm [2] | inhibition of growth at 20 ppm [3]

CON(Cc1ccc(-c2noc(C(F)(F)F)n2)cc1)C(=O)Cc1cccnc1 [Compound 1.28, N-methoxy-2-(3-pyridyl)-N-[[4-[5-(trifluoromethyl)-1,2,4-oxadiazol-3-yl]phenyl]methyl]-acetamide]
≥ 80%: pest or weed control at 200 ppm (Phakopsora Pachyrhizi) | pest or weed control at 200 ppm [1] | pest or weed control at 200 ppm [2] | inhibition of growth at 20 ppm [3]

CCC(=O)N(Cc1ccc(-c2noc(C(F)(F)F)n2)cc1)CC1CC1 [Compound 1.227, N-(cyclopropylmethyl)-N-[[4-[5-(trifluoromethyl)-1,2,4-oxadiazol-3-yl]phenyl]methyl]-propanamide]
≥ 80%: pest or weed control at 200 ppm (Phakopsora Pachyrhizi) | pest or weed control at 200 ppm [1] | pest or weed control at 200 ppm [2] | inhibition of growth at 20 ppm [3]
